For one compound, IC50 results are on record in ChEMBL document CHEMBL1142027, “In vivo incorporation of an alkyne into proteins in Escherichia coli” (Bioorg Med Chem Lett, 2005).

This assay concerns Escherichia coli. Nature of the assay: Inhibitory concentration of compound was determined against Escherichia coli in the absence of alkynyl amino acid 1. The class given is functional, organism-based.

In general, IC50 refers to the concentration that gives 50% inhibition. High values mean a need for much substance, low ones inhibition by little substance.

Values after ≈ are worked out from the molar mass of the structure shown.

`O=C(N[C@H](CO)[C@H](O)c1ccc([N+](=O)[O-])cc1)C(Cl)Cl` [CHLORAMPHENICOL] returned a half-inhibitory concentration (IC50) of 5 µg/mL (≈ 15.5 µM).
